The compounds below were run against Recombinant human KIF18A (1-467 His-tagged) protein (Homo sapiens (Human), UniProt Q8NI77) (assay: KIF18A Enzyme Assay: microtubule-stimulated ATPase activity (ADP-Glo)). Conditions: read-out: KIF18A ATPase IC50; 30 nM KIF18A, 30 μg/mL pig microtubules, ATP at Km 75 μM, ADP-Glo luminescence.
Sequence of Recombinant human KIF18A (1-467 His-tagged) protein (Q8NI77 1-467): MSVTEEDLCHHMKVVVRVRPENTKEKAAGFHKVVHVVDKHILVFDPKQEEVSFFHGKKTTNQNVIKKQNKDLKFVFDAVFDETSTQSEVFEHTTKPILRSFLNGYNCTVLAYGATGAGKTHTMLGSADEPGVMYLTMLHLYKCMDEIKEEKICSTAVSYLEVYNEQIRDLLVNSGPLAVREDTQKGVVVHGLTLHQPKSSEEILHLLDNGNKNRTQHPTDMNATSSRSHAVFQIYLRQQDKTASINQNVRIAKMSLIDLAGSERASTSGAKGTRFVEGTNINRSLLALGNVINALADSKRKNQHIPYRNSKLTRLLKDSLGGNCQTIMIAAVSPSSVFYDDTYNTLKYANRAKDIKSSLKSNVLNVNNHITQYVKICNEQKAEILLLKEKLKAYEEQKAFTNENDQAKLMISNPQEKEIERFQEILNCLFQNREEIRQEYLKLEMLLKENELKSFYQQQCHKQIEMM
Sequence of Recombinant human KIF18A (1-467 His-tagged) protein (P02550 whole entry partner): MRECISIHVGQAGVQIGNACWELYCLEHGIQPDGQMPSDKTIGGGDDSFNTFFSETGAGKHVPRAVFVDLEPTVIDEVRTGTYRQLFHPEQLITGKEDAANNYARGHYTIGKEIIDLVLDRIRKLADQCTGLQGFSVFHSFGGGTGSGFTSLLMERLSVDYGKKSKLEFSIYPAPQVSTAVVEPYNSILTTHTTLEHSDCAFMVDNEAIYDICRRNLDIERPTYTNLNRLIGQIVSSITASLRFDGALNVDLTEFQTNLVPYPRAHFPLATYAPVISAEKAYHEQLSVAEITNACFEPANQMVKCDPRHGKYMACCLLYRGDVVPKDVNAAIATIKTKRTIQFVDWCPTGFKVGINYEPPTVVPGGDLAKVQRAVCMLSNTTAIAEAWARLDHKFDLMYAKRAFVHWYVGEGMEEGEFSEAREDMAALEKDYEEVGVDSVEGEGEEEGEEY
Sequence of Recombinant human KIF18A (1-467 His-tagged) protein (P02554 whole entry partner): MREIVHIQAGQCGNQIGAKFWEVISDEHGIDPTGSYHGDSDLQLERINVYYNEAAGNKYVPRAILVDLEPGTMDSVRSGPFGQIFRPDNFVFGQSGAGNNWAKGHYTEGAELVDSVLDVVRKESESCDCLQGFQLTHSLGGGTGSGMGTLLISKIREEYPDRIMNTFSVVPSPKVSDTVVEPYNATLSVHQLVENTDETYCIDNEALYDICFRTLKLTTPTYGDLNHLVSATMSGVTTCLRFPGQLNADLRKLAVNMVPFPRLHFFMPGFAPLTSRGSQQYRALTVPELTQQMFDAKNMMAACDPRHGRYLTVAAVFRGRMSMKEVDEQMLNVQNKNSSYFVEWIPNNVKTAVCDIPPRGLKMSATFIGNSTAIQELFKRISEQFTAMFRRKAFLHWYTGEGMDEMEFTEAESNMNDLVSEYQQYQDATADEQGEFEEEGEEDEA
Text: KIF18A Enzyme Assay: Microtubule-stimulated ATPase activity assay is used to measure KIF18A enzyme activity after treatment with compound. Compounds were 2-fold serially diluted in DMSO (Sigma Inc) over 22-point concentration range. […] The assay measures ADP formed from the ATPase reaction.
C[C@@H](CO)S(=O)(=O)Nc1ccc(C(=O)Nc2ccnc(N3CCC(F)(F)CC3)n2)c(N2CCC3(CC2)CC3)c1 [Example 6-26-1, (S)-N-(2-(4,4-Difluoropiperidin-1-yl)pyrimidin-4-yl)-4-((2-hydroxy-1-methylethyl)sulfonamido)-2-(6-azaspiro[2.5]octan-6-yl)benzamide] was tested, and the IC50 was 31 nM.
Cc1cc(NC(=O)c2ccc(NS(=O)(=O)CCO)cc2N2CCC3(CC2)CC3)nc(N2CCCC2)n1 [Example 11-26, 4-((2-Hydroxyethyl)sulfonamido)-N-(6-methyl-2-(pyrrolidin-1-yl)pyrimidin-4-yl)-2-(6-azaspiro[2.5]octan-6-yl)benzamide] was tested, and the IC50 was 71.6 nM.
C[C@@H]1CN(c2nccc(NC(=O)c3ccc(NS(=O)(=O)[C@@H](C)CO)cc3N3CCC4(CC3)CC4)n2)CCO1 [Example 6-24-1, 4-(((S)-2-Hydroxy-1-methylethyl)sulfonamido)-N-(2-((R)-2-methylmorpholino)pyrimidin-4-yl)-2-(6-azaspiro[2.5]octan-6-yl)benzamide] was tested, and the IC50 was 17.4 nM.
Cc1cc(NC(=O)c2ccc(NS(=O)(=O)CCO)cc2N2CCC3(CC2)CC3)nc(NC(C)(C)CO)n1 [Example 11-62, N-(2-((1-Hydroxy-2-methylpropan-2-yl)amino)-6-methylpyrimidin-4-yl)-4-((2-hydroxyethyl)sulfonamido)-2-(6-azaspiro[2.5]octan-6-yl)benzamide] showed an IC50 of 18 nM.
In the case of Cc1cc(NC(=O)c2ccc(S(=O)(=O)[C@@H]3COC[C@H]3O)cc2N2CCC3(CC2)CC3)nc(N2CCC(F)(F)CC2)n1 [Example 14-7, N-(2-(4,4-Difluoropiperidin-1-yl)-6-methylpyrimidin-4-yl)-4-(((3R,4R)-4-hydroxytetrahydrofuran-3-yl)sulfonyl)-2-(6-azaspiro[2.5]octan-6-yl)benzamide], the IC50 is reported as 94 nM.
Compound C[C@@H]1CN(c2nc(NC(=O)c3ccc(NS(=O)(=O)CCO)cc3N3CCC4(CC3)CC4)cc(C(C)(C)O)n2)CCO1 [Example 6-40, (R)-4-((2-Hydroxyethyl)sulfonamido)-N-(6-(2-hydroxypropan-2-yl)-2-(2-methylmorpholino)pyrimidin-4-yl)-2-(6-azaspiro[2.5]octan-6-yl)benzamide] has an IC50 of 161 nM.
In the case of Cc1cc(NC(=O)c2ccc(NS(=O)(=O)C3CC3)cc2N2CCC3(CC2)CC3)nc(N2CC(F)(F)C2)n1 [Example 11-22, 4-(Cyclopropanesulfonamido)-N-(2-(3,3-difluoroazetidin-1-yl)-6-methylpyrimidin-4-yl)-2-(6-azaspiro[2.5]octan-6-yl)benzamide], the IC50 is reported as 788 nM.
Cc1cc(NC(=O)c2ccc(NS(=O)(=O)CCO)cc2N2CCC3(CC2)CC3)nc(N2CC3(COC3)C2)n1 [Example 11-8, 4-((2-Hydroxyethyl)sulfonamido)-N-(6-methyl-2-(2-oxa-6-azaspiro[3.3]heptan-6-yl)pyrimidin-4-yl)-2-(6-azaspiro[2.5]octan-6-yl)benzamide] was tested, and the IC50 was 640 nM.
With Cc1cc(NC(=O)c2ccc(NS(=O)(=O)CCO)cc2N2CCC3(CC2)CC3)nc(N2CC[C@@](C)(F)C2)n1 [Example 11-27, (R)-N-(2-(3-Fluoro-3-methylpyrrolidin-1-yl)-6-methylpyrimidin-4-yl)-4-((2-hydroxyethyl)sulfonamido)-2-(6-azaspiro[2.5]octan-6-yl)benzamide] the IC50 was 20 nM.
Compound Cc1cc(NC(=O)c2ccc(S(=O)(=O)C3CNC3)cc2N2CCC3(CC2)CC3)nc(N2CCC(F)(F)CC2)n1 [Example 21, 4-(Azetidin-3-ylsulfonyl)-N-(2-(4,4-difluoropiperidin-1-yl)-6-methylpyrimidin-4-yl)-2-(6-azaspiro[2.5]octan-6-yl)benzamide] has an IC50 of 40 nM.
Cc1cc(NC(=O)c2ccc(NS(=O)(=O)CCO)cc2N2CCC3(CC2)CC3)nc(N2CCC3C[C@]3(O)C2)n1 (stereo partly drawn) [Example 11-42, N-(2-((1R)-1-Hydroxy-3-azabicyclo[4.1.0]heptan-3-yl)-6-methylpyrimidin-4-yl)-4-((2-hydroxyethyl)sulfonamido)-2-(6-azaspiro[2.5]octan-6-yl)benzamide] showed an IC50 of 34 nM.
Cc1cc(NC(=O)c2ccc(NS(=O)(=O)CCO)cc2N2CCC3(CCC3)CC2)nc(N2CCC(F)(F)CC2)n1 [Example 11-40, N-(2-(4,4-Difluoropiperidin-1-yl)-6-methylpyrimidin-4-yl)-4-((2-hydroxyethyl)sulfonamido)-2-(7-azaspiro[3.5]nonan-7-yl)benzamide] was tested, and the IC50 was 109 nM.
Cc1cc(NC(=O)c2ccc(NS(=O)(=O)CCO)cc2N2CCC3(CC2)CC3)nc(N2CCCCC2)n1 [Example 11-36, 4-((2-Hydroxyethyl)sulfonamido)-N-(6-methyl-2-(piperidin-1-yl)pyrimidin-4-yl)-2-(6-azaspiro[2.5]octan-6-yl)benzamide] gave an IC50 of 82 nM.
For O=C(Nc1ccnc(N2CC(F)C2)n1)c1ccc(NS(=O)(=O)CCO)cc1N1CCC2(CC1)CC2 [Example 11-6, N-(2-(3-Fluoroazetidin-1-yl)pyrimidin-4-yl)-4-((2-hydroxyethyl)sulfonamido)-2-(6-azaspiro[2.5]octan-6-yl)benzamide], the IC50 was 68 nM.
Cc1cc(NC(=O)c2ccc(NS(=O)(=O)CCO)cc2N2CCC3(CC2)CC3)nc(N2CCC(F)CC2)n1 [Example 11-51, N-(2-(4-Fluoropiperidin-1-yl)-6-methylpyrimidin-4-yl)-4-((2-hydroxyethyl)sulfonamido)-2-(6-azaspiro[2.5]octan-6-yl)benzamide] showed an IC50 of 20 nM.
Cc1cc(NC(=O)c2ccc(NS(=O)(=O)CCO)cc2N2CCC3(CC2)CC3)nc(N2CCC[C@@H](C#N)C2)n1 [Example 11-34, (R)-N-(2-(3-Cyanopiperidin-1-yl)-6-methylpyrimidin-4-yl)-4-((2-hydroxyethyl)sulfonamido)-2-(6-azaspiro[2.5]octan-6-yl)benzamide] was tested, and the IC50 was 92 nM.
C[C@@H]1CN(c2nccc(NC(=O)c3cc(F)c(NS(=O)(=O)CCO)cc3N3CCC4(CC3)CC4)n2)CCO1 [Example 9-1, (R)-5-Fluoro-4-((2-hydroxyethyl)sulfonamido)-N-(2-(2-methylmorpholino)pyrimidin-4-yl)-2-(6-azaspiro[2.5]octan-6-yl)benzamide] gave an IC50 of 78 nM.
Cc1cc(NC(=O)c2ccc(NS(=O)(=O)CCO)cc2N2CCC3(CC2)CC3)nc(N2CCC(C)(O)CC2)n1 [Example 11-38, N-(2-(4-Hydroxy-4-methylpiperidin-1-yl)-6-methylpyrimidin-4-yl)-4-((2-hydroxyethyl)sulfonamido)-2-(6-azaspiro[2.5]octan-6-yl)benzamide] showed an IC50 of 65 nM.
For C[C@@H]1CN(c2nccc(NC(=O)c3ccc(NS(=O)(=O)CCO)cc3N3CCC4(CC3)CC4)n2)CCO1 [Example 6-4, (R)-4-((2-Hydroxyethyl)sulfonamido)-N-(2-(2-methylmorpholino)pyrimidin-4-yl)-2-(6-azaspiro[2.5]octan-6-yl)benzamide], the IC50 was 32 nM.
For Cc1cc(NC(=O)c2ccc(NS(=O)(=O)[C@@H](C)CO)cc2N2CCC3(CC2)CC3)nc(N2CCO[C@H](C)C2)n1 [Example 6-23-1, 4-(((S)-2-Hydroxy-1-methylethyl)sulfonamido)-N-(6-methyl-2-((R)-2-methylmorpholino)pyrimidin-4-yl)-2-(6-azaspiro[2.5]octan-6-yl)benzamide], the IC50 was 39 nM.
With Cc1cc(NC(=O)c2ccc([S@@](=N)(=O)C3CC3)cc2N2CCC3(CC2)CC3)nc(N2CCC(F)(F)CC2)n1 (single isomer, unassigned) [Example 18-2, 2-(6-Azaspiro[2.5]octan-6-yl)-4-(S-cyclopropylsulfonimidoyl)-N-(2-(4,4-difluoro-1-piperidinyl)-6-methyl-4-pyrimidinyl)benzamide] the IC50 was 57 nM.
With Cc1cc(NC(=O)c2ccc(S(=O)(=O)NCCO)cc2N2CCC3(CC2)CC3)nc(OCCC(F)(F)F)n1 [Example 17-2, 4-(N-(2-Hydroxyethyl)sulfamoyl)-N-(6-methyl-2-(3,3,3-trifluoropropoxy)pyrimidin-4-yl)-2-(6-azaspiro[2.5]octan-6-yl)benzamide] the IC50 was 42 nM.
Compound Cc1cc(NC(=O)c2ccc(S(=O)(=O)[C@@H]3CCC[C@H]3O)cc2N2CCC3(CC2)CC3)nc(N2CCC(F)(F)CC2)n1 [Example 14-9, N-(2-(4,4-Difluoropiperidin-1-yl)-6-methylpyrimidin-4-yl)-4-(((1R,2R)-2-hydroxycyclopentyl)sulfonyl)-2-(6-azaspiro[2.5]octan-6-yl)benzamide] has an IC50 of 195 nM.
In the case of Cc1cc(NC(=O)c2ccc(NS(=O)(=O)CF)cc2N2CCC3(CC2)CC3)nc(N2CCC(F)(F)CC2)n1 [Example 6-2, N-(2-(4,4-Difluoropiperidin-1-yl)-6-methylpyrimidin-4-yl)-4-((fluoromethyl)sulfonamido)-2-(6-azaspiro[2.5]octan-6-yl)benzamide], the IC50 is reported as 42 nM.
In the case of Cc1cc(NC(=O)c2ccc(S(=O)(=O)N[C@H](C)CO)cc2N2CCC3(CC2)CC3)nc(N2CCC(F)(F)CC2)n1 [Example 17-6, (R)-N-(2-(4,4-Difluoropiperidin-1-yl)-6-methylpyrimidin-4-yl)-4-(N-(1-hydroxypropan-2-yl)sulfamoyl)-2-(6-azaspiro[2.5]octan-6-yl)benzamide], the IC50 is reported as 127 nM.
Compound Cc1cc(NC(=O)c2ccc(NS(=O)(=O)CCO)cc2N2CCC3(CC2)CC3)nc(N2CCC3(CC3)C2)n1 [Example 11-25, 4-((2-Hydroxyethyl)sulfonamido)-N-(6-methyl-2-(5-azaspiro[2.4]heptan-5-yl)pyrimidin-4-yl)-2-(6-azaspiro[2.5]octan-6-yl)benzamide] has an IC50 of 17.6 nM.
In the case of Cc1cc(NC(=O)c2cc(F)c(NS(=O)(=O)[C@@H](C)CO)cc2N2CCC3(CC2)CC3)nc(N2CCC(F)(F)CC2)n1 (single isomer, unassigned) [Example 8-2], the IC50 is reported as 73 nM.
In the case of Cc1cc(NC(=O)c2ccc(NS(C)(=O)=O)cc2N2CCC3(CC2)CC3)nc(N2CC(F)(F)C2)n1 [Example 11-24, N-(2-(3,3-Difluoroazetidin-1-yl)-6-methylpyrimidin-4-yl)-4-(methylsulfonamido)-2-(6-azaspiro[2.5]octan-6-yl)benzamide], the IC50 is reported as 55.1 nM.
